# Test results as given in ChEMBL document CHEMBL3885861, “Open TG-GATES”.
# Species: Rattus norvegicus
# Assay: Open TG-GATES - Regimen: Single
# Type: toxicity, organism-based, Sprague-Dawley
# Parameters: regimen Single, gender Male, age 6 weeks
# Conditions: in vivo, po, 0 mg/kg, route gavage, dose level Control; for APTT / Bas / Eos / Fbg / Hb / Ht / Lym / MCH / MCHC / MCV / Mono / Neu / PT / Plat / RBC / Ret / WBC: tissue Blood; for KIDNEY_L / KIDNEY_R / KIDNEY_TOTAL: tissue Kidney; for LIVER: tissue Liver; for A/G / ALP / ALT / AST / BUN / CRE / Ca / Cl / DBIL / GLC / IP / K / LDH / Na / PL / RALB / TBIL / TC / TG / TP / gamma-GTP: tissue Plasma
structure (smiles),measurement,setting,value
CCc1oc2ccccc2c1C(=O)c1cc(Br)c(O)c(Br)c1 [BENZBROMARONE],TERMINAL_BW,3 h,217.1 g
same,APTT,3 h,17.3 s
same,Bas,3 h,0%
same,Eos,3 h,1%
same,Fbg,3 h,226.8 mg/dL
same,Hb,3 h,13.8 g/dL
same,Ht,3 h,40.9%
same,Lym,3 h,76.4%
same,MCH,3 h,22.2 pg
same,MCHC,3 h,33.8%
same,MCV,3 h,65.9 fL
same,Mono,3 h,7.4%
same,Neu,3 h,15.2%
same,PT,3 h,11.9 s
same,Plat,3 h,104.6 x10_4/uL
same,RBC,3 h,621.4 x10_4/ul
same,Ret,3 h,7.9%
same,WBC,3 h,127.8 x10_2/uL
same,KIDNEY_L,3 h,0.9 g
same,KIDNEY_R,3 h,0.9 g
same,KIDNEY_TOTAL,3 h,1.9 g
same,LIVER,3 h,10.1 g
same,A/G,3 h,2
same,ALP,3 h,745.6 IU/L
same,ALT,3 h,38.4 IU/L
same,AST,3 h,65.4 IU/L
same,BUN,3 h,12.2 mg/dL
same,CRE,3 h,0.6 mg/dL
same,Ca,3 h,10.8 mg/dL
same,Cl,3 h,104 meq/L
same,DBIL,3 h,0.046 mg/dL
same,GLC,3 h,191 mg/dL
same,IP,3 h,9.7 mg/dL
same,K,3 h,4.8 meq/L
same,LDH,3 h,81.6 IU/L
same,Na,3 h,138.8 meq/L
same,PL,3 h,143.6 mg/dL
same,RALB,3 h,3.8 g/dL
same,TBIL,3 h,0.3 mg/dL
same,TC,3 h,75 mg/dL
same,TG,3 h,84.2 mg/dL
same,TP,3 h,5.7 g/dL
same,gamma-GTP,3 h,1.8 IU/L
same,TERMINAL_BW,6 h,212.5 g
same,APTT,6 h,16 s
same,Bas,6 h,0%
same,Eos,6 h,1%
same,Fbg,6 h,230.2 mg/dL
same,Hb,6 h,14.1 g/dL
same,Ht,6 h,41.9%
same,Lym,6 h,79.8%
same,MCH,6 h,21.8 pg
same,MCHC,6 h,33.6%
same,MCV,6 h,65 fL
same,Mono,6 h,6.2%
same,Neu,6 h,13.6%
same,PT,6 h,12.2 s
same,Plat,6 h,103.2 x10_4/uL
same,RBC,6 h,645.6 x10_4/ul
same,Ret,6 h,7.9%
same,WBC,6 h,125.2 x10_2/uL
same,KIDNEY_L,6 h,1 g
same,KIDNEY_R,6 h,1 g
same,KIDNEY_TOTAL,6 h,2.1 g
same,LIVER,6 h,9.9 g
same,A/G,6 h,2
same,ALP,6 h,690.6 IU/L
same,ALT,6 h,28.2 IU/L
same,AST,6 h,57.4 IU/L
same,BUN,6 h,10.6 mg/dL
same,CRE,6 h,0.5 mg/dL
same,Ca,6 h,10.5 mg/dL
same,Cl,6 h,104.6 meq/L
same,DBIL,6 h,0.006 mg/dL
same,GLC,6 h,182.6 mg/dL
same,IP,6 h,9.7 mg/dL
same,K,6 h,5.2 meq/L
same,LDH,6 h,82.8 IU/L
same,Na,6 h,138.4 meq/L
same,PL,6 h,142.2 mg/dL
same,RALB,6 h,3.8 g/dL
same,TBIL,6 h,0.4 mg/dL
same,TC,6 h,72.4 mg/dL
same,TG,6 h,69.2 mg/dL
same,TP,6 h,5.7 g/dL
same,gamma-GTP,6 h,1.2 IU/L
same,TERMINAL_BW,9 h,208.2 g
same,APTT,9 h,16.2 s
same,Bas,9 h,0%
same,Eos,9 h,0.8%
same,Fbg,9 h,234.8 mg/dL
same,Hb,9 h,13.6 g/dL
same,Ht,9 h,40.6%
same,Lym,9 h,74.6%
same,MCH,9 h,21.6 pg
same,MCHC,9 h,33.5%
same,MCV,9 h,64.4 fL
same,Mono,9 h,5.2%
same,Neu,9 h,19.6%
same,PT,9 h,12.2 s
same,Plat,9 h,105.2 x10_4/uL
same,RBC,9 h,631 x10_4/ul
same,Ret,9 h,7.4%
same,WBC,9 h,95.5 x10_2/uL
same,KIDNEY_L,9 h,1 g
same,KIDNEY_R,9 h,1 g
same,KIDNEY_TOTAL,9 h,2 g
same,LIVER,9 h,9.1 g
same,A/G,9 h,1.9
same,ALP,9 h,623.4 IU/L
same,ALT,9 h,27 IU/L
same,AST,9 h,58.8 IU/L
same,BUN,9 h,11.2 mg/dL
same,CRE,9 h,0.6 mg/dL
same,Ca,9 h,10 mg/dL
same,Cl,9 h,105.2 meq/L
same,DBIL,9 h,0.008 mg/dL
same,GLC,9 h,181.2 mg/dL
same,IP,9 h,11 mg/dL
same,K,9 h,5 meq/L
same,LDH,9 h,86.8 IU/L
same,Na,9 h,139.4 meq/L
same,PL,9 h,126.4 mg/dL
same,RALB,9 h,3.8 g/dL
same,TBIL,9 h,0.3 mg/dL
same,TC,9 h,71.6 mg/dL
same,TG,9 h,42.8 mg/dL
same,TP,9 h,5.8 g/dL
same,gamma-GTP,9 h,1.2 IU/L
same,TERMINAL_BW,24 h,225.6 g
same,APTT,24 h,15.9 s
same,Bas,24 h,0%
same,Eos,24 h,1.2%
same,Fbg,24 h,220.2 mg/dL
same,Hb,24 h,13.9 g/dL
same,Ht,24 h,41.4%
same,Lym,24 h,75%
same,MCH,24 h,21.4 pg
same,MCHC,24 h,33.5%
same,MCV,24 h,63.7 fL
same,Mono,24 h,6.4%
same,Neu,24 h,17.4%
same,PT,24 h,11.9 s
same,Plat,24 h,115 x10_4/uL
same,RBC,24 h,650 x10_4/ul
same,Ret,24 h,7.2%
same,WBC,24 h,109 x10_2/uL
same,KIDNEY_L,24 h,1 g
same,KIDNEY_R,24 h,1 g
same,KIDNEY_TOTAL,24 h,2 g
same,LIVER,24 h,10.9 g
same,A/G,24 h,2.1
same,ALP,24 h,682.4 IU/L
same,ALT,24 h,32.2 IU/L
same,AST,24 h,61 IU/L
same,BUN,24 h,16.8 mg/dL
same,CRE,24 h,0.6 mg/dL
same,Ca,24 h,10.4 mg/dL
same,Cl,24 h,104.6 meq/L
same,DBIL,24 h,0.006 mg/dL
same,GLC,24 h,188.8 mg/dL
same,IP,24 h,7.8 mg/dL
same,K,24 h,5.3 meq/L
same,LDH,24 h,91.6 IU/L
same,Na,24 h,138.8 meq/L
same,PL,24 h,149.4 mg/dL
same,RALB,24 h,4 g/dL
same,TBIL,24 h,0.3 mg/dL
same,TC,24 h,81 mg/dL
same,TG,24 h,100.2 mg/dL
same,TP,24 h,5.9 g/dL
same,gamma-GTP,24 h,1 IU/L
